The text below walks through data of US10787441B2, “Hepatitis C virus inhibitors” (priority 2016, dated 2020).

The term pIC50 denotes −log10 of the IC50, conventionally taken in molar units. For orientation: IC50 means the midpoint of a concentration-inhibition curve.

pIC50: −log10 of the molar value. Like-named read-outs stand apart in the source and are kept apart here.

Assay type in all cases: cell-based, Hepatitis C virus
In assay [1] the test system is HCV 1aY93H mutant replicon. In words: HCV replicon assay, genotype 1a Y93H mutant. The conditions noted are these: for pIC50: read-out: 1aY93H IC50, HCV genotype 1a, Y93H mutant; for IC50: Hepatitis C virus, read-out: 1aY93H IC50 (nM), HCV genotype 1a, Y93H mutant. As to the method: General procedure: The luciferase replicon transient transfection assay measures the ability of a test compound to inhibit the replication of a transiently-transfected HCV luciferase-bearing wild-type or mutant replicon in cured human hepatoma cells (Huh7.5). The inhibition of HCV replication was measured by quantification of luciferase protein expression. This assay has been validated using a panel of genotype 1a and 1b replicons bearing mutations known to be associated with resistance to BMS-790052. Briefly, subconfluent Huh7.5 cells were electroporated with 10 μg of wild-type or mutant luciferase-bearing HCV replicon RNA. The cells were then seeded in 96-well opaque white plates at 3×10^4 cells/well in 150 μL/well and incubated for 4 hrs at 37° C./5% CO2. Ten 1:5 serial dilutions of each test compound were made in media (DMEM containing glucose, L-glutamine and sodium pyruvate, 10% fetal bovine serum, 100 IU/mL penicillin, 100 μg/mL streptomycin, 2 mM GlutaMAX, and 1×MEM non-essential amino acids (Mediatech, Inc. and Invitrogen Corp.)) at concentrations that were 4× higher than the final concentrations to be tested and 50 μL/well was added to the transfected cells. Untreated, mock-transfected cells served as a negative control of luciferase expression. The plates were incubated at 37° C./5% CO2 for 4 days whereupon the media was removed and 50 μL of ONE-glo luciferase substrate (Promega) was added to each well. The plates were agitated on a rotating platform at room temperature for 3 min and read in a Victor^3V microplate reader (Perkin-Elmer) using a 700 nm cut-off filter with a 1 sec read time. EC50 values were calculated from dose response curves from the resulting best-fit equations determined by Microsoft Excel and XLfit 4.1 software.
In general terms: Replicon systems follow genome replication, usually without infectious particles.

In assay [2] the test system is HCV genotype 1b Con1 strain subgenomic luciferase replicon. In words: HCV replicon assay, genotype 1b. To be noted: Hepatitis C virus. As to the method: (§1) The HCV luciferase replicon assay measures the ability of a test compound to inhibit HCV replication in cell culture after 3 days of treatment in a human hepatoma cell line (Huh-7) bearing an HCV replicon containing a luciferase-neomycin phosphotransferase fusion gene. The inhibition of HCV replication was measured by quantification of luciferase protein expression. Briefly, Huh-7 cells containing either the HCV genotype 1a H77 strain or genotype 1b Con1 strain subgenomic luciferase replicon (H1a-luc or Zluc, respectively) were grown in DMEM containing glucose, L-glutamine and sodium pyruvate, 10% fetal bovine serum (FBS), 100 IU/mL penicillin, 100 μg/mL streptomycin, 2 mM GlutaMAX, non-essential amino acids and 0.25 (H1a-luc) or 0.5 (Zluc) mg/mL G418. GlutaMAX was obtained from Invitrogen, Corp.; all other media reagents were obtained from Mediatech, Inc. For dose-response testing, the cells were seeded in 96-well plates at 1×10^4 (H1a-luc) or 7.5×10^3 (Zluc) cells/well in a volume of 50 μL, and incubated at 37° C./5% CO2. Three hours after plating, 50 μL of ten 5-fold serial dilutions of compound were added, and cell cultures were incubated at 37° C./5% CO2 for 72 hours. In all cases, Huh-7 cells lacking the HCV replicon served as negative control. To assess luciferase expression, the media/compound was removed from the plates and ONE-glo Luciferase assay reagent (Promega) was added to each well. The assay plates were shaken for 3 minutes at room temperature and luciferase activity for each well was measured with a 1 sec read time on the Victor^3V multilabel counter using a 700 nm cut-off filter (Perkin Elmer). EC50 values were calculated from dose response curves from the resulting best-fit equations determined by Microsoft Excel and XLfit 4.1 software.

The test system of a further assay is HCV 2b. In words: HCV replicon assay, genotype 2b. The conditions noted are these: for IC50: Hepatitis C virus, read-out: 2b IC50 (nM), HCV genotype 2b; for pIC50: read-out: 2b IC50, HCV genotype 2b.
Assay [3] concerns HCV genotype 1a H77 strain subgenomic luciferase replicon. In words: HCV replicon assay, genotype 1a. The conditions noted are these: for pIC50: read-out: 1a IC50, HCV genotype 1a; for IC50: Hepatitis C virus, read-out: 1a IC50 (nM), HCV genotype 1a. As to the method:
as §1

Assay [4] concerns HCV genotype 3a NS5A within the 1b-replicon. In words: HCV replicon assay, genotype 3a (NS5A intergenotypic stable cell line). To be noted: for pIC50: read-out: 3a IC50, HCV genotype 3a; for IC50: Hepatitis C virus, read-out: 3a IC50 (nM), HCV genotype 3a.
Source text: The nucleotide sequences of the NS5A region of genotype 2a (GenBank Accession # AB047639), genotype 3a (GenBank Accession # D17763), and genotype 4a (GenBank Accession # DQ418788) were synthesized by an outside vendor. The NS5A region of each of these genotypes included the first 11 amino acids of the protease recognition sequence of genotype 1b, as well as the last 10 amino acids of genotype 1b. The NS5A gene cassettes were excised with site specific restriction endonucleases and ligated into a ZS11-luciferase genotype 1b backbone (backbone contains the genotype 1b NS3 protease, NS4a, NS4b, and NS5b coding regions) with similarly cut restriction enzyme sites. Thus, the newly constructed plasmid contains a genotype 2a-, 3a- or 4a-specific NS5A gene within the 1b-replicon.
These new intergenotypic plasmids were used to establish stable cell lines. RNA was generated from the NS5A intergenotypic plasmids and used in conjunction with a lipofectin reagent to transfect a cured Huh7 cell line. Transfected cells were selected for with G418. After selection has occurred the stable cell lines were propagated, tested for luciferase activity, and RT-PCR with genotype specific primers (either 1a, 2a, 3a, or 4a). Stable cell lines containing the intergenotypic replicon were then fully sequenced and analyzed for proper expression of NS3, NS5A and NS5B proteins.
Drug titration analysis was performed using the luciferase replicon assay described herein.
as §1

Regarding `CCC1c2ccc(-c3cnc([C@@H]4CCCN4C(=O)[C@@H](NC(=O)OC)C4CCOCC4)[nH]3)cc2Oc2ccc3cc(-c4cnc([C@@H]5CCCN5C(=O)[C@@H](NC(=O)OC)C5CCOCC5)[nH]4)ccc3c21` (single isomer, unassigned) [Compound 15], the negative logarithm of the IC50 (pIC50) was 9.08 in assay [1], 11.44 in assay [2], 11.01 in assay [3] and 9.66 in assay [4]. Besides, the IC50 with HCV 2b stood at 0.292 nM.
For `COC(=O)N[C@H](C(=O)N1CCC[C@H]1c1ncc(-c2ccc3c(ccc4oc5ccc(-c6cnc([C@@H]7CCCN7C(=O)[C@@H](NC(=O)OC)C(C)C)[nH]6)cc5c(=O)c43)c2)[nH]1)C(C)C` [Compound 25, methyl [(1S)-1-({(2S)-2-[5-(10-{2-[(2S)-1-{(2S)-2-[(methoxycarbonyl)amino]-3-methylbutanoyl}pyrrolidin-2-yl]-1H-imidazol-5-yl}-12-oxo-12H-benzo[a]xanthen-3-yl)-1H-imidazol-2-yl]pyrrolidin-1-yl}carbonyl)-2-methylpropyl]carbamate], the half-inhibitory concentration (IC50) is not below 100 nM in assay [1], not below 100 nM in the assay on HCV 2b, 0.167 nM in assay [3] and not below 1 nM in assay [4]. Moreover, the pIC50 in assay [2] is 9.97.
In the case of `COC(=O)N[C@H](C(=O)N1C[C@H](F)C[C@H]1c1ncc(-c2ccc3c(ccc4oc5cc(-c6cnc([C@@H]7C[C@@H](F)CN7C(=O)[C@@H](NC(=O)OC)C(C)C)[nH]6)ccc5c(=O)c43)c2)[nH]1)C(C)C` [Compound 28, methyl [(1S)-1-({(2S,4R)-4-fluoro-2-[5-(9-{2-[(2S,4R)-4-fluoro-1-{(2S)-2-[(methoxycarbonyl)amino]-3-methylbutanoyl}pyrrolidin-2-yl]-1H-imidazol-5-yl}-12-oxo-12H-benzo[a]xanthen-3-yl)-1H-imidazol-2-yl]pyrrolidin-1-yl}carbonyl)-2-methylpropyl]carbamate], the half-maximal inhibitory concentration (IC50) was 1.18 nM in assay [1], 89.8 nM in the assay on HCV 2b, 0.0292 nM in assay [3] and not below 1 nM in assay [4]. In assay [2], this compound had a pIC50 of 11.35.
Regarding `COC(=O)N[C@H](C(=O)N1C[C@H](F)C[C@H]1c1ncc(-c2ccc3c(ccc4oc5cc(-c6cnc([C@@H]7C[C@@H](F)CN7C(=O)[C@@H](NC(=O)OC)C7CCOCC7)[nH]6)ccc5c(=O)c43)c2)[nH]1)C1CCOCC1` [Compound 32, dimethyl [(12-oxo-12H-benzo[a]xanthene-3,9-diyl)bis{1H-imidazole-5,2-diyl[(2S,4R)-4-fluoropyrrolidine-2,1-diyl][(1S)-2-oxo-1-(tetrahydro-2H-pyran-4-yl)ethane-2,1-diyl]}]biscarbamate], the IC50 in assay [1] is 0.18 nM; with HCV 2b, 3.47 nM; in assay [3], 0.0841 nM; in assay [4] it was 5.84 nM.
Regarding `CCC1c2ccc(-c3cnc([C@@H]4CCCN4C(=O)[C@@H](NC(=O)OC)C(C)C)[nH]3)cc2Oc2ccc3cc(-c4cnc([C@@H]5CCCN5C(=O)[C@@H](NC(=O)OC)C(C)C)[nH]4)ccc3c21` (single isomer, unassigned) [Compound 5], the IC50 in assay [1] was found to be 11.7 nM; in assay [3], 0.005 nM; in assay [4], 1.08 nM. Moreover, in the assay on HCV 2b, the pIC50 was 9.11.
As for `CCC1(CC)c2ccc(-c3cnc([C@@H]4CCCN4C(=O)[C@H](NC(=O)OC)C(C)C)[nH]3)cc2Oc2cc3ccc(-c4cnc([C@@H]5CCCN5C(=O)[C@@H](NC(=O)OC)C(C)C)[nH]4)cc3cc21` [Compound 9, methyl [(1R)-1-({(2S)-2-[5-(12,12-diethyl-9-{2-[(2S)-1-{(2S)-2-[(methoxycarbonyl)amino]-3-methylbutanoyl}pyrrolidin-2-yl]-1H-imidazol-5-yl}-12H-benzo[b]xanthen-3-yl)-1H-imidazol-2-yl]pyrrolidin-1-yl}carbonyl)-2-methylpropyl]carbamate], the IC50 in assay [1] was determined as 3.28 nM; in the assay with HCV 2b it was 4.53 nM; in assay [3] it was 0.002 nM; in assay [4], 1.11 nM.
For `CCC1c2ccc(-c3cnc([C@@H]4CCCN4C(=O)[C@@H](NC(=O)OC)C(C)C)[nH]3)cc2Oc2ccc3cc(-c4cnc([C@@H]5CCCN5C(=O)[C@@H](NC(=O)OC)C(C)C)[nH]4)ccc3c21` (single isomer, unassigned) [Compound 6], the pIC50 in assay [1] was 7.82; in the assay with HCV 2b, 7.89; in assay [3], 11.57; in assay [4], 8.76.
For `COC(=O)N[C@H](C(=O)N1CCC[C@H]1c1ncc(-c2ccc3c(ccc4oc5cc(-c6cnc([C@@H]7CCCN7C(=O)[C@@H](NC(=O)OC)C7CCOCC7)[nH]6)ccc5c(=O)c43)c2)[nH]1)C1CCOCC1` [Compound 30, dimethyl [(12-oxo-12H-benzo[a]xanthene-3,9-diyl)bis{1H-imidazole-5,2-diyl(2S)pyrrolidine-2,1-diyl[(1S)-2-oxo-1-(tetrahydro-2H-pyran-4-yl)ethane-2,1-diyl]}]biscarbamate], the 50% inhibitory concentration (IC50) in assay [1] amounted to 2.03 nM; with HCV 2b it was 0.481 nM; in assay [3], 0.0416 nM; in assay [4], 0.722 nM.
For `CCC1(CC)c2ccc(-c3cnc([C@@H]4CCCN4C(=O)[C@H](NC(=O)OC)C(C)C)[nH]3)cc2Oc2ccc3cc(-c4cnc([C@@H]5CCCN5C(=O)[C@@H](NC(=O)OC)C(C)C)[nH]4)ccc3c21` [Compound 8, methyl [(1R)-1-({(2S)-2-[5-(12,12-diethyl-3-{2-[(2S)-1-{(2S)-2-[(methoxycarbonyl)amino]-3-methylbutanoyl}pyrrolidin-2-yl]-1H-imidazol-5-yl}-12H-benzo[a]xanthen-9-yl)-1H-imidazol-2-yl]pyrrolidin-1-yl}carbonyl)-2-methylpropyl]carbamate] the same measures were 4.1 nM, 3.33 nM, 0.002 nM and 0.581 nM.
